Source: EP0059980A1, “Use of an antimicrobial preservative in ophtalmics and the care of contact lenses” (NATEC Institut für naturwissenschaftlich- technische …, priority 1981, dated 1982)
≈ marks a conversion by molar mass, not a printed value. Like-named read-outs stand apart in the source and are kept apart here.

Columns and labels:
Aspergillus fumigatus = experiment: Minimal inhibitory concentration (MIC), turbidity method in peptone broth; format: cell-based
Text: (§1) Die antimikrobiellen Wirkungsspektren eines erfindungsgemäß vorgeschlagenen Wirkstoffes, nämlich des Laurinsäurecholinesterchlorids, und im Vergleich dazu von den homologen Essigsäure-, Capronsäure- und Palmitinsäurecholinesterchloriden sowie von den bekannten Konservierungsmitteln Adamantylcarbonsäurecholinesterchlorid und Chlor- 'hexidin-diacetat wurden durch Bestimmung der minimalen Hemmkonzentration nach der Trübungsmethode in Pepton-Nährlösung bei einem pH von 7,0 festgestellt. Diese Methode ist von K.H. Wallhäußer und H. Schmidt in "Sterilisation, Desinfektion, Konservierung, Chemotherapie", Stuttgart (1967), Seite 420-421 beschrieben. Die Ergebnisse sind in Tabelle 1 zusammengestellt.

[1] = system: Candida albicans ATCC 10231; experiment: as above; format: cell-based
Text: as §1

E. coli ATCC 11229 = experiment: as above; format: cell-based; settings: Escherichia coli
Text: as §1

Fusorium oxysporum = experiment: as above; format: cell-based
Text: as §1

[2] = system: Staphylococcus aureus ATCC 25923; experiment: as above; format: cell-based
Text: as §1

Streptococcus pyogenes = experiment: as above; format: cell-based
Text: as §1

Pseudomonas aeruginosa = experiment: as above; format: cell-based; settings: Pepton-Nährlösung, pH 7,0
Text: as §1, with “Diese Methode ist von K.H. Wallhäußer und H. Schmidt in "Sterilisation, Desinfektion, Konservierung, Chemotherapie", Stuttgart (1967), Seite 420-421 beschrieben.” left out

[3] = pancreatic juice
Protocol: (§3) Ferner wurde eine 1 %ige wäßrige Laurinsäurecholinesterchloridlösung in Gegenwart von Pankreassaft simulierten physiologischen Bedingungen (38°C) ausgesetzt und nach 1 Stunde und nach 24 Stunden Proben gezogen und auf entstandene freie Fettsäuren untersucht. Dazu wurden die Proben mit Petroläther extrahiert und im Extrakt ' die Fettsäuren mikroanalytisch bestimmt.

[4] = system: Bacillus cereus ATCC 11778; experiment: Minimal inhibitory concentration (MIC), turbidity method in peptone broth; format: cell-based
Text: as §1

[5] = system: Bacillus subtilis ATCC 6633; experiment: as above; format: cell-based
Text: as §1

Enterobacter aerogenes = experiment: as above; format: cell-based; settings: Klebsiella aerogenes
Text: as §1

Paecilomyces Ehrlich = experiment: as above; format: cell-based
Text: as §1

Paecilomyces variati = experiment: as above; format: cell-based
Text: as §1

Proteus vulgaris = experiment: as above; format: cell-based
Text: as §1

Pseudomonas fluorescens = experiment: as above; format: cell-based; settings: Pepton-Nährlösung, pH 7,0
Text: as §1

[6] = system: Staphylococcus epidermis ATCC 12228; experiment: as above; format: cell-based
Text: as §1

Acute oral toxicity test = experiment: Acute oral toxicity test; design: species or system Mäuse; settings: mouse, in vivo, black mice, mean (range in brackets), read-out: oraler LD 50-Wert
Text: Anhand des Laurinsäurecholinesterchlorids als Beispiel für die erfindungsgemäß verwendeten Laurinsäurecholinestersalze wurde ferner eine akute orale Toxizitätsprüfung durchgeführt, wobei schwarze Mäuse als Versuchstiere dienten. Dabei wurde gefunden, daß der orale LD 50-Wert im Mittel bei 3,15 (2,66 bis 3,74) g/kg Tiergewicht liegt.

Ratten = experiment: Subacute oral toxicity test; format: in vivo; settings: rats, 20 and 50 mg per kg body weight
[7] = system: Albino-Meerschweinchen (Pirlbright white); experiment: Direct skin irritation test, ointment applied daily for one week; format: in vivo; settings: 200 ppm in Vaseline ointment base, 12 guinea pigs, daily for one week on shorn flank
Protocol: (§2) Ferner wurde die Haut- und Schleimhautverträglichkeit von Laurinsäurecholinesterchlorid an Albino-Meerschweinchen aus einem leicht allergisierbaren Stamm (Pirlbright white) von 400 bis 700 g Gewicht und bei kleinwüchsigen Kaninchen von 1,5 bis 3 kg Gewicht geprüft. Die Tiere erhielten Standarddiät und Wasser nach Belieben. Die Raumtemperatur betrug etwa 20 °C, die Luftfeuchtigkeit etwa 50 %, die tägliche Belichtungsdauer 12 Stunden.
Die Prüfsubstanz wurde in einer Salbengrundlage aus Vaseline mit 200 ppm des Wirkstoffs auf direkte Hautreizung getestet. Bei 12 Meerschweinchen wurde die Präparation eine Woche lang täglich auf einem kurz geschorenen Bezirk an der Flanke aufgetragen und etwa 30 Sekunden eingerieben.

[8] = system: Albino-Meerschweinchen (Pirlbright white); experiment: Skin sensitisation test (induction and provocation phase); format: in vivo; settings: 200 ppm in Vaseline; three weeks induction, 5 days pause, 3 days provocation; checked after 24 h, 2 and 3 days
Protocol: as §2
Daraufhin wurde bei den gleichen Tieren die lokale Anwendung der Prüfsubstanz auf drei Wochen ausgedehnt (Induktionsphase). Nach anschließender 5-tägiger Pause wurde die Prüfsubstanz an drei aufeinanderfolgenden Tagen auf einem nicht vorbehandelten kontralateralen kurzgeschorenen Kontrollbezirk eingerieben (Provokationsphase),.
Aufgrund dieser Versuche ergab sich kein Hinweis auf sensibilisierende Eigenschaften des Laurinsäurecholinesterchlorids.

Kaninchenauge = experiment: Ocular irritation test according to Draize (mucous membrane tolerance); format: in vivo, Kaninchen; settings: 2.000 ppm in 0,9 % saline, 0,1 ml in conjunctival sac, eight rabbits
Protocol: as §2
Die Prüfung auf Schleimhautverträglichkeit wurde am Kaninchenauge vorgenommen. Die Prüfsubstanz wurde als Lösung von 2.000 ppm Laurinsäurecholinesterchlorid in 0,9 %iger wäßriger Kochsalzlösung im okkulären Reizwirkungstest nach Draize an acht Kaninchen auf Schleimhautverträglichkeit in der folgenden Weise geprüft.
0,1 ml der Testlösung wurden im Konjunktivalsack eines Tierauges unter Schließung von Ober- und Unterlid eingebracht. Man ließ die Lösung eine Minute lang einwirken. Das andere Auge wurde zur Kontrolle in gleicher Weise mit destilliertem Wasser behandelt.
Eine Minute nach der Applikation wurden bei der Hälfte der Tiere die behandelten Augen eine Minute lang mit '10 bis 20 ml lauwarmer physiologischer Kochsalzlösung naChgespült..Die Augen wurden anschließend bei allen behandelten Tieren geprüft.

[9] = Hydrolytic stability of aqueous solution kept boiling; format: physicochemical; settings: 5 % aqueous solution
Text: Die erfindungsgemäß vorgeschlagenen Laurinsäurecholinestersalze besitzen auch die erforderliche Stabilität und Beständigkeit. So wurde eine 5 %ige wäßrige Laurinsäurecholinesterchloridlösung 8 Stunden am Sieden gehalten. Danach wurde eine nur unwesentliche Zunahme des Säuregehalts der Trockensubstanz von 2,5 auf 3,9 % festgestellt. Demnach kann unter den Bedingungen, unter denen die erfindungsgemäß vorgeschlagenen Wirkstoffe normaler; weise als Konservierungsmittel eingesetzt werden, eine hydrolytische Spaltung des Wirkstoffes praktisch ausgeschlossen werden.

[10] = system: Bakterien, Hefen und Schimmelpilze; experiment: Preservative challenge test according to USP XIX; format: cell-based; settings: 0,01 % in sterile aqueous solution; criteria of Wallhäußer for category I products, up to 28 days
Text: Als Beispiel für die erfindungsgemäß vorgesehenen Konservierungsmittel wurde Laurinsäurecholinesterchlorid einem Konservierungsbelastungstest nach der Vorschrift USP XIX unterworfen und mit bekannten Konservierungsmitteln, die in Kontaktlinsen-Pflegelösungen eingesetzt werden und dem gleichen Test unterworfen wurden, verglichen.. Die USP XIX schreibt vor, daß bei einem entsprechenden Belastungstest, bei dem man von einer Ausgangskeimzahl von […] ausgeht, ein'e Verminderung der Keimzahl innerhalb von 14 Tagen um 99,9 % bei den zugesetzten Bakterien erreicht wird und daß sich die zugesetzten Pilzsporen und Hefen innerhalb der gleichen Zeit nicht signifikant vermehren.
Um die antimikrobielle Wirkung der verschiedenen untersuchten Konservierungsmittel besser vergleichen zu können, wurden die Belastungstest bei jeweils gleicher Wirkstoffkonzentration (0,01 % in steriler wäßriger Lösung) und bei gleicher Ausgangsbelastung des jeweils eingesetzten Stammes durchgeführt. In den Tabellen 2 bis 5 sind die Keimzahlen nach jeweils 2 und 10 Minuten sowie nach 1 Stunde, 2 und 24 Stunden angegeben, in den Tabellen 6 bis 9 sind die Ergebnisse nach 1 Tag, 7, 14, 21 und 28 Tagen festgehalten, da die Keimzahlen während der weiteren Laufzeit bis zum 28. Tag bei guter Konservierung nicht mehr ansteigen dürfen.
Wie aus der Monographie von K.H. Wallhäußer, Sterilisation, Desinfektion, Konservierung, 2. […]

[11] = Hydrolysis in presence of pancreatic juice under simulated physiological conditions
Protocol: as §3

[12] = Pepton-Nährlösung, pH 7,0, read-out: MIC-Werte
[13] = ATCC10231, Candida albicans ATCC 10231, Pepton-Nährlösung, pH 7,0, read-out: MIC-Werte
[14] = ATCC11229, E. coli ATCC 11229, Pepton-Nährlösung, pH 7,0, read-out: MIC-Werte
[15] = Fusorium oxysporum, Pepton-Nährlösung, pH 7,0, read-out: MIC-Werte
[16] = ATCC25923, Staphylococcus aureus ATCC 25923, Pepton-Nährlösung, pH 7,0, read-out: MIC-Werte
[17] = Candida albicans, ATCC10231, pH 7, read-out: MIC-Werte
[18] = ATCC11229, pH 7, read-out: MIC-Werte
[19] = Paecilomyces, pH 7, read-out: MIC-Werte
[20] = Staphylococcus aureus, ATCC25923, pH 7, read-out: MIC-Werte

C[N+](C)(C)CCOC(=O)C12CC3CC(CC(C3)C1)C2 [Adamantylcarbonsäurecholinesterchlorid]
MIC (Aspergillus fumigatus; [12]): > 400 mg/L | MIC [1, 13]: > 400 mg/L | MIC (E. coli ATCC 11229; [14]): > 400 mg/L | MIC (Fusorium oxysporum; [15]): > 400 mg/L | MIC [2, 16]: 200 mg/L | MIC (Streptococcus pyogenes; [12]): 20 mg/L | MIC (Pseudomonas aeruginosa): > 400 mg/L

CCCCCC(=O)OCC[N+](C)(C)C [Capronsäurecholinesterchlorid]
MIC (Aspergillus fumigatus; [12]): > 400 mg/L | MIC [1, 13]: > 400 mg/L | MIC (E. coli ATCC 11229; [14]): > 400 mg/L | MIC (Fusorium oxysporum; [15]): > 400 mg/L | MIC [2, 16]: > 400 mg/L | MIC (Streptococcus pyogenes; [12]): 100 mg/L | MIC (Pseudomonas aeruginosa): > 400 mg/L

CCCCCCCC(=O)OCC(O)CO (stereo not drawn) [Glycerinmonocaprylat]
Abbauquote [3]: 13,8%

CCCCCCCCCCCC(=O)OCC[N+](C)(C)C [Laurinsäurecholinesterchlorid]
MIC (Aspergillus fumigatus; pH 7, read-out: MIC-Werte): 10 mg/L | MIC ([4]; Bacillus cereus, ATCC11778, pH 7, read-out: MIC-Werte): 3.13 mg/L | MIC ([5]; Bacillus subtilis, ATCC6633, pH 7, read-out: MIC-Werte): 0.78 mg/L | MIC [1, 17]: 10 mg/L | MIC (E. coli ATCC 11229; [18]): 10 mg/L | MIC (Enterobacter aerogenes; pH 7, read-out: MIC-Werte): 100 mg/L | MIC (Fusorium oxysporum; pH 7, read-out: MIC-Werte): 3.13 mg/L | MIC (Paecilomyces Ehrlich; [19]): 0.78 mg/L | MIC (Paecilomyces variati; [19]): 0.78 mg/L | MIC (Proteus vulgaris; pH 7, read-out: MIC-Werte): 200 mg/L | MIC (Pseudomonas fluorescens): 2.5 mg/L | MIC [2, 20]: 2.5 mg/L | MIC ([6]; Staphylococcus, ATCC12228, pH 7, read-out: MIC-Werte): 0.78 mg/L | MIC (Streptococcus pyogenes; pH 7, read-out: MIC-Werte): 0.16 mg/L | MIC (Pseudomonas aeruginosa): 20 mg/L | LD50 (Acute oral toxicity test): 3150 mg/kg | Wirkungen bei subakuter oraler Toxizitätsprüfung (Ratten): keine Wirkungen | direkte Hautreizung (Hautreaktionen) [7]: keine Hautreakticnen | Reaktion im Kontrollbezirk (Sensibilisierung) [8]: in keinem Falle eine Reaktion | Reaktion im Sinne von Rötung, Schwellung, Sekretion oder Hornhautveränderung (Kaninchenauge; 1 min): In keinem Falle kam es zu einer Reaktion | spontane Abwehrreaktionen (Kaninchenauge): keine spontanen Abwehrreaktionen | Säuregehalt der Trockensubstanz ([9]; after 8 hours boiling): 3,9% | Säuregehalt der Trockensubstanz ([9]; before boiling): 2,5% | Bedingungen für ausreichende Konservierung (Abfall der Keimzahl) [10]: weit übertroffen | Hydrolyse im Kontrollversuch ohne Pankreassaft ([11]; control without pancreatic juice, 38°C): keine Hydrolyse | metabolised at 1 h ([11]; pancreatic juice): 1.5% | metabolised at 24 h ([11]; pancreatic juice): 2.5%

N=C(NCCCCCCNC(=N)NC(=N)Nc1ccc(Cl)cc1)NC(=N)Nc1ccc(Cl)cc1 [Chlorhexidin-diacetat]
MIC (Aspergillus fumigatus; [12]): 12.5 mg/L (≈ 24.7 µM) | MIC ([4]; ATCC11778, Bacillus cereus ATCC 11778, Pepton-Nährlösung, pH 7,0, read-out: MIC-Werte): 0.78 mg/L (≈ 1.54 µM) | MIC ([5]; ATCC6633, Bacillus subtilis ATCC 6633, Pepton-Nährlösung, pH 7,0, read-out: MIC-Werte): 0.78 mg/L (≈ 1.54 µM) | MIC [1, 13]: 3.13 mg/L (≈ 6.19 µM) | MIC (E. coli ATCC 11229; [14]): 3.13 mg/L (≈ 6.19 µM) | MIC (Enterobacter aerogenes; Enterobacter aerogenes, Pepton-Nährlösung, pH 7,0, read-out: MIC-Werte): 12.5 mg/L (≈ 24.7 µM) | MIC (Fusorium oxysporum; [15]): 12.5 mg/L (≈ 24.7 µM) | MIC (Paecilomyces Ehrlich; Paecilomyces Ehrlich, Pepton-Nährlösung, pH 7,0, read-out: MIC-Werte): 0.78 mg/L (≈ 1.54 µM) | MIC (Paecilomyces variati; Paecilomyces variati, Pepton-Nährlösung, pH 7,0, read-out: MIC-Werte): 1.56 mg/L (≈ 3.09 µM) | MIC (Proteus vulgaris; [12]): 50 mg/L (≈ 98.9 µM) | MIC [2, 16]: 1.56 mg/L (≈ 3.09 µM) | MIC ([6]; ATCC12228, Staphylococcus epidermis ATCC 12228, Pepton-Nährlösung, pH 7,0, read-out: MIC-Werte): 0.78 mg/L (≈ 1.54 µM) | MIC (Streptococcus pyogenes; [12]): 0.78 mg/L (≈ 1.54 µM)

CC(=O)OCC[N+](C)(C)C [Essigsäurecholinesterchlorid]
MIC (Aspergillus fumigatus; pH 7, read-out: MIC-Werte): > 400 mg/L | MIC [1, 17]: > 400 mg/L | MIC (E. coli ATCC 11229; [18]): > 400 mg/L | MIC (Fusorium oxysporum; [15]): > 400 mg/L | MIC [2, 20]: > 400 mg/L | MIC (Streptococcus pyogenes; pH 7, read-out: MIC-Werte): 100 mg/L | MIC (Pseudomonas aeruginosa): > 400 mg/L

CCCCCCCCCCCCCCCC(=O)OCC[N+](C)(C)C [Palmitinsäurecholinesterchlorid]
MIC (Aspergillus fumigatus; [12]): 100 mg/L | MIC [1, 13]: 100 mg/L | MIC (E. coli ATCC 11229; [14]): > 400 mg/L | MIC (Fusorium oxysporum; [15]): > 400 mg/L | MIC [2, 16]: 2.5 mg/L | MIC (Streptococcus pyogenes; [12]): 1.25 mg/L | MIC (Pseudomonas aeruginosa): > 400 mg/L
